Assay results from patent US20080125432A1 (Devgen NV, priority 2004, published 2008).
Read-outs that look alike come from different tables or passages of the source.

Experiments:
human Kv4.3 = target: T1, human Kv4.3 (Homo sapiens, UniProt Q9UK17); assay: C. elegans based high-throughput screen for Kv4.3 modulators (pharynx pumping, Calcein AM uptake), transgenic strain UG1755; type: in vivo; details: for Ratio N2/Kv4.3: EC50 on N2 divided by EC50 on the Kv4.3 expressing strain, cut-off 1.8; for EC50: transgenic strain UG1755 expressing human Kv4.3, read-out: EC50 (μM) Kv4.3 worm
T1 construct: expressed in transfected cells; host or cells: transgenic C. elegans strain UG1755 (N2 injected with plasmid pGV8, integrated array)
T1 sequence (Q9UK17 1-655): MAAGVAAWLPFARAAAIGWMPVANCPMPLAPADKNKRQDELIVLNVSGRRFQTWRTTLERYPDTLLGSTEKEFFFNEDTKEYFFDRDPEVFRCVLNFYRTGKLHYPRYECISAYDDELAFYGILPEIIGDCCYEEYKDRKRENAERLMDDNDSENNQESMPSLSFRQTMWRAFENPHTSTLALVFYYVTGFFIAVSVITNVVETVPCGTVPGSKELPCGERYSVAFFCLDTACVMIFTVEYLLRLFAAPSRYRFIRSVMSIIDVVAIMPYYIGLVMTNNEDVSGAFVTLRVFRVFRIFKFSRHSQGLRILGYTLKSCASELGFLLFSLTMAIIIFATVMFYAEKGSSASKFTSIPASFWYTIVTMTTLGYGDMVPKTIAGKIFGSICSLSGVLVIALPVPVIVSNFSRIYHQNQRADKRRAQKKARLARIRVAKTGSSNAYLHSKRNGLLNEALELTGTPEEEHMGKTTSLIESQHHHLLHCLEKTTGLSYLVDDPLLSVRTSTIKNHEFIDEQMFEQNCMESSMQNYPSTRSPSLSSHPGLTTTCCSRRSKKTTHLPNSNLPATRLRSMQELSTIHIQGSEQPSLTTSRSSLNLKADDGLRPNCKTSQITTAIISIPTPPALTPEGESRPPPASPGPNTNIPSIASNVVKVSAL
Description: A C. elegans based high-throughput screen for Kv4.3 modulators has been used to establish an in vivo SAR (structure-activity relationships: the effect of chemical structure on biological activity) on Kv4.3 for the compounds according to the present invention.
This assay has employed a stable transgenic C. elegans strain that functionally expressed human Kv4.3 in the pharynx and a visible selection GFP maker in body-wall muscle.
The pharynx is the feeding organ of C. elegans and contracts rhythmically 3-4 times per second. The pharynx contraction is controlled by the nervous system via action potentials similar to the human myocyte and can thus be used to study human ion channel physiology in vivo in C. elegans.
Introducing the human Kv4.3 channel into the C. elegans pharynx influences the C. elegans action potential in a characteristic fashion. The additional number of potassium channels increases potassium ion efflux, enhances re-polarization and thereby shortens the action potential duration. […] The shortened action potentials of the C. elegans pharynx resulting from expression of human Kv4.3, changes the pharynx contraction-relaxation cycle and consequently reduces the pumping/feeding in these transgenic animals. This change of pumping is an end-point amenable to high-throughput screening technology. The pumping end-point can be technically translated into a high-throughput read-out by the use of a pro-fluorescent dye. The pro-fluorescent dye is taken up by C. elegans depending on its pumping activity and converted into a fluorescent dye by enzymes located in its intestines. After a defined incubation period, the change of fluorescence intensity in the intestine can be measured with a plate reader.
(§1) The screening of the compounds according to the present invention has been performed in the C. elegans based high-throughput screen for Kv4.3 modulators described above. The method for testing the activity on human Kv4.3 of the compounds according to the invention with C. elegans strains expressing human Kv4.3 for their activity is the same as the method described in WO 03/097682. The method for testing the compounds on wild-type C. elegans strains not expressing human Kv4.3 is the same as the method described in WO 00/63427. Briefly, UG1755 animals have been grown in large numbers and staged young adults (no or only few eggs inside the uterus) have been harvested on the day of screening. Approximately 125 animals in 80 μl buffer have been dispensed per well of a “U shaped 96-well compound plate The compound plate contained already compound material at a final concentration of 30 μM in 0.3% DMSO. After one hour incubation 10 μl of the fluorescent label Calcein AM (CAM) have been added to achieve a final concentration of 5 μM CAM and 0.8% DMSO. After another four hours of incubation at 20° C., the drinking of C. elegans animals (or the “reaction 8 measured by the uptake of CAM) has been stopped by adding 10 μl of a 60 μM ivermectin solution. The fluorescence intensity (counts per second) has been measured 40 minutes after adding ivermectin with the Wallac plate reader at a wavelength of 535 nm (after excitation at 485 nm).
The active compounds have been identified and confirmed by dose-response analysis. An EC50 has been calculated and the results are listed under Table 3. Dose-response curves have been obtained at concentrations of 30 μM. EC50 has been calculated using XLfit 2.09 software package.

[1] = system: C. elegans wild-type strain N2; assay: Same C. elegans pumping assay format using wild-type strain N2; type: in vivo; details: read-out: EC50 (μM) Wild type worm N2
Description: as §1
These compounds have been also tested in the same assay format using a C. elegans wild-type strain N2 and the corresponding EC50 has been calculated. The ratio of the EC50s obtained for a compound on the two strains (transgenic expressing human Kv4.3 and wild-type) gives an indication on whether said compound is acting on human Kv4.3. […]

[2] = target: T2, human Kv4.3/KChIP2.2 potassium channel (Homo sapiens, UniProt Q9UK17); assay: Whole cell patch clamp, CHO-K1 cells stably expressing human Kv4.3/KChIP2.2; type: cell-based; details: Kv4.3 mediated current, charge; patch clamp; read-out: Kv4.3 charge IC50
T2 construct: expressed in transfected cells
T2 sequence (Q9UK17 1-655): T1 sequence (Q9UK17 1-655)

Row | Ratio N2/Kv4.3 (human Kv4.3) | EC50 (human Kv4.3) [µM] | EC50 [1] [µM] | IC50 [2] [nM] | EC50 ([1]; Caenorhabditis elegans) [µM] | Molecule
1 | 2.4 | 10.1 |  |  | 24 | Cc1nc(Nc2ccc(F)cc2)sc1C(=O)N[C@@H](C)c1ccc2ccccc2c1 [Compound 15, 2-(4-fluoro-phenylamino)-4-methyl-thiazole-5-carboxylic acid (S)-1-(naphthalen-2-yl)ethyl amide]
2 | >2.3 | 25 |  | 1720 | > 60 | Cc1nc(Nc2ccc(Br)cc2)sc1C(=O)NCc1ccccc1 [Compound 20, 2-(4-bromo-phenylamino)-4-methyl-thiazole-5-carboxylic acid benzylamide]
3 | >2.6 | 11.7 |  |  | > 30 | Cc1nc(Nc2ccc(Br)cc2)sc1C(=O)N[C@H](C)c1ccc([N+](=O)[O-])cc1 [Compound 22, 2-(4-bromo-phenylamino)-4-methyl-thiazole-5-carboxylic acid (R)-1-(4-nitrophenyl)ethyl amide]
4 | 2.8 | 14.6 |  | 550 | 41 | Cc1nc(Nc2ccc(Br)cc2)sc1C(=O)NCc1ccc([N+](=O)[O-])cc1 [Compound 23, 2-(4-bromo-phenylamino)-4-methyl-thiazole-5-carboxylic acid 4-nitro-benzylamide]
5 | >1.7 | 17.1 |  |  | > 30 | Cc1nc(Nc2ccc(Br)cc2)sc1C(=O)NCc1cc(C(F)(F)F)cc(C(F)(F)F)c1 [Compound 24, 2-(4-bromo-phenylamino)-4-methyl-thiazole-5-carboxylic acid 3,5-bis-trifluoromethyl-benzylamide]
6 | 2.0 | 22.7 |  |  | 45 | C[C@@H](NC(=O)c1csc(Nc2ccc(F)cc2)n1)c1ccc([N+](=O)[O-])cc1 [Compound 36, 2-(4-fluoro-phenylamino)-thiazole-4-carboxylic acid (R)-1-(4-nitro-phenyl)ethyl amide]
7 | 3.8 | 6 |  |  | 23 | O=C(N[C@@H]1CCC[C@H]1OCc1ccccc1)c1csc(Nc2ccc(F)cc2)n1 [Compound 37, 2-(4-fluoro-phenylamino)-thiazole-4-carboxylic acid (1R,2R)-2-(benzyloxycyclopent-1-yl) amide]
8 | 2.5 | 17.3 |  |  | 44 | O=C(N[C@@H]1CCCC[C@H]1OCc1ccccc1)c1csc(Nc2ccc(F)cc2)n1 [Compound 38, 2-(4-fluoro-phenylamino)-thiazole-4-carboxylic acid (1R,2R)-2-(benzyloxycyclohex-1-yl) amide]
9 | >2.5 | 12.1 | > 30 | 3460 |  | O=C(N[C@@H]1CCC[C@H]1OCc1ccccc1)c1csc(Nc2ccc(Cl)cc2)n1 [Compound 40, 2-(4-chloro-phenylamino)-thiazole-4-carboxylic acid (1R,2R)-2-(benzyloxycyclopent-1-yl) amide]
10 | 2.2 | 22 | 48 |  |  | O=C(N[C@H]1CCCC[C@@H]1OCc1ccccc1)c1csc(Nc2ccc(Cl)cc2)n1 [Compound 41, 2-(4-chloro-phenylamino)-thiazole-4-carboxylic acid (1S,2S)-2-(benzyloxycyclohex-1-yl) amide]
11 | 2.0 | 21.4 |  |  | 43 | CCCN(Cc1ccc([N+](=O)[O-])cc1)C(=O)c1csc(Nc2ccc(Cl)cc2)n1 [Compound 42, 2-(4-chloro-phenylamino)-thiazole-4-carboxylic acid (4-nitro-benzyl)-propyl-amide]
12 | 1.8 | 18.9 |  |  | 35 | Cc1cccc(C)c1Nc1nc(C(=O)N[C@H](C)c2ccc([N+](=O)[O-])cc2)cs1 [Compound 43, 2-(2,6-dimethyl-phenylamino)-thiazole-4-carboxylic acid (R)-1-(4-nitro-phenyl)ethyl amide]
13 | 3.5 | 11.5 |  |  | 39.5 | COC[C@H](Cc1ccccc1)NC(=O)c1csc(Nc2cc(C)cc(C)c2)n1 [Compound 44, 2-(3,5-dimethyl-phenylamino)-thiazole-4-carboxylic acid (S)-(1-methoxymethyl-2-phenyl-ethyl)-amide]
14 | 28.0 | 1.3 |  |  | 37 | Cc1cc(C)cc(Nc2nc(C(=O)N[C@@H]3CCC[C@H]3OCc3ccccc3)cs2)c1 [Compound 45, 2-(3,5-dimethyl-phenylamino)-thiazole-4-carboxylic acid (1R,2R)-2-(benzyloxycyclopent-1-yl)-amide]
15 | 2.8 | 14 |  |  | 39 | Cc1cc(C)cc(Nc2nc(C(=O)N[C@H]3CCCC[C@@H]3OCc3ccccc3)cs2)c1 [Compound 46, 2-(3,5-dimethyl-phenylamino)-thiazole-4-carboxylic acid (1S,2S)-2-(benzyloxycyclohex-1-yl) amide]
16 | 14.9 | 2 |  | 2470 | 29.8 | O=C(N[C@@H]1CCC[C@H]1OCc1ccccc1)c1csc(Nc2ccccc2)n1 [Compound 48, 2-phenylaminothiazole-4-carboxylic acid (1R,2R)-2-(benzyloxycyclopent-1-yl) amide]
17 | >1.8 | 17 |  |  | > 30 | COc1ccc(Cl)cc1Nc1nc(C(=O)N[C@@H]2CCCC[C@H]2OCc2ccccc2)cs1 [Compound 51, 2-(5-chloro-2-methoxy-phenylamino)-thiazole-4-carboxylic acid (1R,2R)-2-(benzyloxycyclohex-1-yl) amide]

Row | Molecule | Ratio N2/Kv4.3 (human Kv4.3) | EC50 (human Kv4.3) [µM] | EC50 [1] [µM] | IC50 [2] [nM] | EC50 ([1]; Caenorhabditis elegans) [µM]
18 | 2-(4-bromo-phenylamino)-4-methyl-thiazole-5-carboxylic acid (1R,2R)-2-(benzyloxycyclopent-1-yl) amide [Compound 25] | >25 | 10.3 | > 30 | 1320 | 
